Values quoted from earlier work as cited in publication PMC6838683, “Discovery of Human Signaling Systems: Pairing Peptides to G Protein-Coupled Receptors” (Cell, 2019).
Where two headings read alike, the source gives them in different places. No end group written: not given here.

Biological target: human GPCRs
Design: method as in Guide to Pharmacology database
Conditions: max reported value, ref Guide to Pharmacology database, cited from earlier work
Source text: Supplement mmc1.xlsx, sheet "HumanGPCRLigands" | column: pKi_value; pKd_value; pEC50_value; pIC50_value

[1] = receptor OPRD1 (oprd_human, P41143)
[2] = receptor OPRK1 (oprk_human, P41145)
[3] = receptor OPRM1 (oprm_human, P35372)
[4] = receptor nmur1_human (NMUR1, Q9HB89)
[5] = receptor nmur2_human (NMUR2, Q9GZQ4)
[6] = receptor CCR7 (ccr7_human, P32248)
[7] = receptor LTB4R2 (lt4r2_human, Q9NPC1)
[8] = receptor pacr_human (ADCYAP1R1, P41586)
[9] = receptor vipr1_human (VIPR1, P32241)
[10] = receptor vipr2_human (VIPR2, P41587)
[11] = receptor CYSLTR1 (cltr1_human, Q9Y271)
[12] = receptor CYSLTR2 (cltr2_human, Q9NS75)
[13] = receptor gipr_human (GIPR, P48546)
[14] = receptor TACR1 (nk1r_human, P25103)
[15] = receptor TACR2 (nk2r_human, P21452)
[16] = receptor TACR3 (nk3r_human, P29371)
[17] = receptor npbw2_human (NPBWR2, P48146)
[18] = receptor OXER1 (oxer1_human, Q8TDS5)
[19] = receptor 5ht1b_human (HTR1B, P28222)
[20] = receptor 5ht1f_human (HTR1F, P30939)
[21] = receptor 5ht2a_human (HTR2A, P28223)
[22] = receptor 5ht4r_human (HTR4, Q13639)

## dynorphin A
[1]
  pKi_value: 7.4
[2]
  pKi_value: 10.8
[3]
  pKi_value: 8.1

## neuromedin S-33 (ILQRGSGTAAVDFTKKDHTATWGRPFFLFRPRN; not fully specified; ends and bridges not checked; UniProt Q5H8A3 109-141, looked up)
[4]
  pEC50_value: 10.2
  pIC50_value: 10
[5]
  pEC50_value: 10
  pIC50_value: 9.2

## glucagon-like peptide 2
Receptor glp2r_human (GLP2R, O95838)
  pIC50_value: 8.5

## CXCL2
Receptor CXCR2 (cxcr2_human, P25025)
  pIC50_value: 9.1

## CCL19
[6]
  pIC50_value: 9
  pKd_value: 10
Receptor CCRL2 (ccrl2_human, O00421)
  pIC50_value: 7.4

## CCCCCC(O)C=CC=CCC=CCCCC(=O)O (centres unmarked) [12-hydroxyheptadecatrienoic acid]
[7]
  pEC50_value: 7.7
  pIC50_value: 8.6

## TIP39
Receptor pth2r_human (PTH2R, P49190)
  pIC50_value: 9.2

## VIP
[8]
  pEC50_value: 7.8
  pIC50_value: 6
  pKi_value: 6.3
[9]
  pEC50_value: 7.9
  pIC50_value: 8
  pKi_value: 9
[10]
  pEC50_value: 7.3
  pIC50_value: 8.3
  pKi_value: 8.7

## CCCCC/C=C\C\C=C/C=C/C=C/[C@@H](SC[C@H](N)C(=O)NCC(=O)O)[C@@H](O)CCCC(=O)O [LTD4]
[11]
  pEC50_value: 8.5
  pIC50_value: 8.1
[12]
  pEC50_value: 7.4
  pIC50_value: 8.1
  pKi_value: 8.1

## gastric inhibitory polypeptide
[13]
  pKd_value: 8.7
  pKi_value: 9.1

## CXCL13
Receptor CXCR5 (cxcr5_human, P32302)
  pKd_value: 7.3

## γ-MSH
Receptor mc3r_human (MC3R, P41968)
  pKd_value: 8.5

## QRFP43 (QDEGSEATGFLPAAGEKTSGPLGNLAEELNGYSRKKGGFSFRF-NH2; UniProt P83859 91-133, looked up)
Receptor QRFPR (qrfpr_human, Q96P65)
  pEC50_value: 8.6

## CSCC[C@H](NC(=O)[C@H](CC(C)C)NC(=O)CNC(=O)[C@@H](NC(=O)[C@H](Cc1ccccc1)NC(=O)[C@H](Cc1ccccc1)NC(=O)[C@H](CC(=O)O)NC(=O)[C@H](Cc1cnc[nH]1)NC(=O)[C@H](CCSC)NC(=O)[C@@H](N)CC(=O)O)C(C)C)C(N)=O [neurokinin B]
[14]
  pKi_value: 6.4
[15]
  pKi_value: 7.7
[16]
  pEC50_value: 8.4
  pKi_value: 9.2

## CC(C)C[C@H](NC(=O)[C@H](Cc1ccccc1)NC(=O)CNC(=O)CNC(=O)[C@@H](N)Cc1ccc(O)cc1)C(=O)N[C@@H](CCCN=C(N)N)C(=O)N[C@@H](CCCN=C(N)N)C(=O)N[C@@H](CCC(N)=O)C(=O)N[C@@H](Cc1ccccc1)C(=O)N[C@@H](CCCCN)C(=O)N[C@H](C(=O)N[C@H](C(=O)N[C@H](C(=O)O)[C@@H](C)O)C(C)C)C(C)C [dynorphin B]
[1]
  pKi_value: 7.8
[2]
  pKi_value: 9.9
[3]
  pKi_value: 8.5

## neuropeptide W-30 (WYKHVASPRYHTVGRAAGLLMGLRRSPYLW; not fully specified; UniProt Q8N729 33-62, looked up)
Receptor npbw1_human (NPBWR1, P48145)
  pIC50_value: 10.6
[17]
  pIC50_value: 9.4

## neuropeptide Y
Receptor NPY4R (npy4r_human, P50391)
  pKi_value: 8
Receptor NPY5R (npy5r_human, Q15761)
  pKi_value: 9.1

## NC(=O)CC[C@@H]1NC(=O)[C@H](Cc2ccccc2)NC(=O)[C@H](Cc2ccc(O)cc2)NC(=O)[C@@H](N)CSSC[C@@H](C(=O)N2CCC[C@H]2C(=O)N[C@@H](CCCN=C(N)N)C(=O)NCC(N)=O)NC(=O)[C@H](CC(N)=O)NC1=O [vasopressin]
Receptor AVPR1A (v1ar_human, P37288)
  pKi_value: 9.3
Receptor AVPR1B (v1br_human, P47901)
  pKi_value: 9.5
Receptor AVPR2 (v2r_human, P30518)
  pKi_value: 9.1
Receptor OXTR (oxyr_human, P30559)
  pKi_value: 9.3

## CSCC[C@H](NC(=O)[C@H](CC(C)C)NC(=O)CNC(=O)[C@@H](NC(=O)[C@H](Cc1ccccc1)NC(=O)[C@H](CO)NC(=O)[C@H](CC(=O)O)NC(=O)[C@@H](NC(=O)[C@H](CCCCN)NC(=O)[C@@H](N)Cc1cnc[nH]1)[C@@H](C)O)C(C)C)C(N)=O [neurokinin A]
[14]
  pKi_value: 9.3
[15]
  pKi_value: 9.1
[16]
  pEC50_value: 7.4
  pKi_value: 6.3

## CCCCC/C=C\C\C=C/C=C/C=C/[C@@H](SC[C@H](NC(=O)CC[C@H](N)C(=O)O)C(=O)NCC(=O)O)[C@@H](O)CCCC(=O)O [LTC4]
[11]
  pEC50_value: 7.7
  pIC50_value: 6.5
  pKi_value: 8.1
[12]
  pEC50_value: 7.3
  pIC50_value: 8.5

## CCCCC/C=C\C/C=C\C/C=C\C=C\C(=O)CCCC(=O)O [Peptide 5-oxo-ETE]
[18]
  pEC50_value: 8.5

## CCL20
Receptor CCR6 (ccr6_human, P51684)
  pIC50_value: 8.5

## NCCc1ccccc1 [β-phenylethylamine]
Receptor taar1_human (TAAR1, Q96RJ0)
  pEC50_value: 7

## NCCc1c[nH]c2ccc(O)cc12 [Peptide 5-hydroxytryptamine]
Receptor 5ht1a_human (HTR1A, P08908)
  pKi_value: 9.7
[19]
  pKd_value: 8.4
  pKi_value: 9
Receptor 5ht1d_human (HTR1D, P28221)
  pKi_value: 9
Receptor 5ht1e_human (HTR1E, P28566)
  pKi_value: 8.2
[20]
  pKd_value: 8
  pKi_value: 8
[21]
  pKd_value: 8.9
  pKi_value: 8.4
Receptor 5ht2b_human (HTR2B, P41595)
  pKi_value: 8.4
Receptor 5ht2c_human (HTR2C, P28335)
  pKi_value: 8.6
[22]
  pKd_value: 8.8
  pKi_value: 7
Receptor 5ht5a_human (HTR5A, P47898)
  pKi_value: 6.9
Receptor 5ht6r_human (HTR6, P50406)
  pKi_value: 7.5
Receptor 5ht7r_human (HTR7, P34969)
  pKi_value: 9.6

## kisspeptin-13 (LPNYNWNSFGLRF; not fully specified; ends and bridges not checked; UniProt Q15726 109-121, looked up)
Receptor kissr_human (KISS1R, Q969F8)
  pKi_value: 8.4

## melanin-concentrating hormone
Receptor mchr1_human (MCHR1, Q99705)
  pKi_value: 10.5
Receptor mchr2_human (MCHR2, Q969V1)
  pIC50_value: 9.2

## PrRP-20 (TPDINPAWYASRGIRPVGRF; not fully specified; ends and bridges not checked; UniProt P81277 34-53, looked up)
Receptor PRLHR (prlhr_human, P49683)
  pKi_value: 9.6

## CCCCC[C@H](O)/C=C/C=C\C/C=C\C=C\C(=O)CCCC(=O)O [Peptide 5-oxo-15-HETE]
[18]
  pEC50_value: 7.7

## neuropeptide B-23 (WYKPAAGHSSYSVGRAAGLLSGL)
[17]
  pIC50_value: 8.4
